Results as given in patent US10626092B2, “Polymorphic forms of 3-[(2-butyl-1-(2-diethylamino-ethyl)-1H-benzoimidazol-5-yl]-N-hydroxy-acrylamide and uses thereof” (MEI PHARMA, INC., priority 2016, dated 2020).
Structures can show the parent of a compound that is named as a salt.

Tests used:
Format in all cases: physicochemical
Variable humidity XRPD = settings: variable humidity XRPD at 30° C.; dihydrochloride monohydrate
Text: (§1) The analytical method is described herein.
as §1
For variable humidity and temperature experiments the ANSYCO HT chamber was used, installed within the D8 Advance system diffractometer (Bruker) designed with Brag-Brentano geometry and equipped with LynxEye solid state detector. The radiation used for collecting the data was CuKα1 (λ=1.54056 Å) monochromatized by germanium crystal. The material was placed on a fixed sample holder that was mounted inside the chamber.

[1] = Desolvation studies: equilibration at 125° C. in high boiling point solvents; settings: two days; for Form in Ambient AAC: then accelerated aging conditions
Procedure: Using solvent equilibration of hydrates in high boiling point solvents has been reported as a method to obtaining desolvated forms. […] The experiments were started with approximately 50 mg of material and 100 μL of solvent. After equilibration, the solids were isolated from the solutions by centrifugation. The solids were allowed to dry under ambient conditions before HT-XRPD analysis was performed. The wet solids were analyzed by HT-XRPD immediately to avoid hydration under ambient conditions or under vacuum.

[2] = Long-term slurry conversion experiments
Procedure: Approximately 30 mg of the specific form was dosed in a standard HPLC vial and aliquots of 100 μL of solvent until a suspension was formed. […] The solids were isolated from the mother liquor and analyzed by HT-XRPD after mild drying under ambient conditions (ambient) and after thorough drying under vacuum (vacuum). All the solids were exposed to accelerated ageing conditions (2 days at 40° C./70% RH) and re-analyzed by HT-XRPD.

Compound: CCCCc1nc2cc(/C=C/C(=O)NO)ccc2n1CCN(CC)CC [Form 1, 3-[2-butyl-1-(2-diethylamino-ethyl)-1H-benzoimidazol-5-yl]-N-hydroxy-acrylamide dihydrochloride monohydrate]
- relative humidity at which the form is physically stable (Variable humidity XRPD): 10-85 % RH
- Form in Ambient ([1]; Anisole): Mono
- Form in Ambient AAC ([1]; Anisole): 2.5
- Form in Ambient ([1]; Cumene): Mono
- Form in Ambient AAC ([1]; Cumene, dihydrochloride monohydrate): 2.5
- Form in Ambient ([1]; N-Methyl-2-pyrrolidone, dihydrochloride monohydrate): No solids
- Form in Ambient ([1]; p-Xylene): Mono
- Form in Ambient AAC ([1]; p-Xylene): 2.5
- solid form after slurry ([2]; all ethanol/water and methanol/water mixtures at ambient conditions): transformed into the 2.5 hydrate (Form 3)
- solid form after slurry ([2]; no water present in the solvent system): conversion to the anhydrous Form 9
